Data reported in ChEMBL document CHEMBL4507263, “Data for DCP probe BAY-474” (2021).

Assays:
[1] = test system: Tyrosine-protein kinase ABL1 (Homo sapiens), P00519 [E255K]; conditions: Compound concentration 1000.0 nM
[2] = target: Mitogen-activated protein kinase 8 (Homo sapiens) (UniProt P45983); conditions: Compound concentration 1000.0 nM
[3] = test system: ALK tyrosine kinase receptor (Homo sapiens), Q9UM73 [C1156Y]; conditions: Compound concentration 1000.0 nM
[4] = target: Serine/threonine-protein kinase 38-like (Homo sapiens) (UniProt Q9Y2H1); conditions: Compound concentration 1000.0 nM
[5] = target: RAC-gamma serine/threonine-protein kinase (Homo sapiens) (UniProt Q9Y243); conditions: Compound concentration 1000.0 nM
RAC-gamma serine/threonine-protein kinase (Homo sapiens), sequence (Q9Y243 whole entry): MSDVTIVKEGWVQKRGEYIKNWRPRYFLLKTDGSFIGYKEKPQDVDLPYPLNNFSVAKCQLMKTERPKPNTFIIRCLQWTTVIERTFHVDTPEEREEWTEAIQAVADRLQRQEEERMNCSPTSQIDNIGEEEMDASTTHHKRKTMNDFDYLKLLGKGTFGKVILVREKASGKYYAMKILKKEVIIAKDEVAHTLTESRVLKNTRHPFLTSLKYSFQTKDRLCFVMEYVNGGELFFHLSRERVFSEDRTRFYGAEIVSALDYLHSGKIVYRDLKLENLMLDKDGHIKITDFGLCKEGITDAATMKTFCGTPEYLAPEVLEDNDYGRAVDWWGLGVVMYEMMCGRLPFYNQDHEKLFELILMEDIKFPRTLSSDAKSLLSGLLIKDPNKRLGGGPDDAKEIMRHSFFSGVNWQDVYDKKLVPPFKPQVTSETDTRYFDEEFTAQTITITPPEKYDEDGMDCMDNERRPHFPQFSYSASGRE

[6] = target: Mitotic checkpoint serine/threonine-protein kinase BUB1 (Homo sapiens) (UniProt O43683); conditions: Compound concentration 1000.0 nM
[7] = target: Serine/threonine-protein kinase 38 (Homo sapiens) (UniProt Q15208); conditions: Compound concentration 1000.0 nM
Serine/threonine-protein kinase 38 (Homo sapiens), sequence (Q15208 2-465 limits assumed): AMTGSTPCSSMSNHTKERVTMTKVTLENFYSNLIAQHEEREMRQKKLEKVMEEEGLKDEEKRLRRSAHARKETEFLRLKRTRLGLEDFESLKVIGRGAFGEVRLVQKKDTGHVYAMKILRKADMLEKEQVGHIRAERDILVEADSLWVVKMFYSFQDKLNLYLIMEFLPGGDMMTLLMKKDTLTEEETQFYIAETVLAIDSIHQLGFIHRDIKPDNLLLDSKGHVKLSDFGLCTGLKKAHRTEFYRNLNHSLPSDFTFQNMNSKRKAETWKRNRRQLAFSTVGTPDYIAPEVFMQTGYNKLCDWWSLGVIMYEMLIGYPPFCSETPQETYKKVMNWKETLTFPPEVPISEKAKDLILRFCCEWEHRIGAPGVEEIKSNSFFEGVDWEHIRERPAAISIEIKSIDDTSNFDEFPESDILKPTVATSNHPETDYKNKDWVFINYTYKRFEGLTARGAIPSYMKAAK

[8] = target: Protein-tyrosine kinase 6 (Homo sapiens) (UniProt Q13882); conditions: Compound concentration 1000.0 nM
[9] = target: cGMP-dependent protein kinase 2 (Homo sapiens) (UniProt Q13237); conditions: Compound concentration 1000.0 nM
[10] = target: Proto-oncogene tyrosine-protein kinase receptor Ret (Homo sapiens) (UniProt P07949); conditions: Compound concentration 1000.0 nM
[11] = target: Ephrin type-A receptor 6 (Homo sapiens) (UniProt Q9UF33); conditions: Compound concentration 1000.0 nM
[12] = target: Platelet-derived growth factor receptor alpha (Homo sapiens) (UniProt P16234); conditions: Compound concentration 1000.0 nM
[13] = target: Cyclin-dependent kinase 15 (Homo sapiens) (UniProt Q96Q40); conditions: Compound concentration 1000.0 nM
[14] = target: Tyrosine-protein kinase receptor TYRO3 (Homo sapiens) (UniProt Q06418); conditions: Compound concentration 1000.0 nM
[15] = target: Tyrosine-protein kinase JAK2 (Homo sapiens) (UniProt O60674); conditions: Compound concentration 1000.0 nM
[16] = target: Mitogen-activated protein kinase kinase kinase 14 (Homo sapiens) (UniProt Q99558); conditions: Compound concentration 1000.0 nM
[17] = target: 3-phosphoinositide-dependent protein kinase 1 (Homo sapiens) (UniProt O15530); conditions: Compound concentration 1000.0 nM
3-phosphoinositide-dependent protein kinase 1 (Homo sapiens), sequence (O15530 whole entry): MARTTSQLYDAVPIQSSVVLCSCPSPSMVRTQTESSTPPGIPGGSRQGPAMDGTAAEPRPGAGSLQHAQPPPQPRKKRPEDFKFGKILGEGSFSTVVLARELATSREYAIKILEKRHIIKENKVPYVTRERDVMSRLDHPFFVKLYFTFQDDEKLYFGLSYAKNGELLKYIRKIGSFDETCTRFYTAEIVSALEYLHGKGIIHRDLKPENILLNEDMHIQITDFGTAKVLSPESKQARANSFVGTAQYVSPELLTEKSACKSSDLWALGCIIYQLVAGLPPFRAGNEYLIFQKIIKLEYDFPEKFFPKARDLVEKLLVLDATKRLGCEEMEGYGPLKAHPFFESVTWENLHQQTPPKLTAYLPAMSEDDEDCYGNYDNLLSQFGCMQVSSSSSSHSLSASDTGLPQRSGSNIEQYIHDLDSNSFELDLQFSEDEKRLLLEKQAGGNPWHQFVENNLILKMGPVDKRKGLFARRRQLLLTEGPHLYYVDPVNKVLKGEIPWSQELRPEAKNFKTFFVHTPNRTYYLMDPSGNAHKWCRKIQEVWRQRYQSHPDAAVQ

[18] = target: Proto-oncogene tyrosine-protein kinase Src (Homo sapiens) (UniProt P12931); conditions: Compound concentration 1000.0 nM
Proto-oncogene tyrosine-protein kinase Src (Homo sapiens), sequence (P12931 2-536 limits assumed): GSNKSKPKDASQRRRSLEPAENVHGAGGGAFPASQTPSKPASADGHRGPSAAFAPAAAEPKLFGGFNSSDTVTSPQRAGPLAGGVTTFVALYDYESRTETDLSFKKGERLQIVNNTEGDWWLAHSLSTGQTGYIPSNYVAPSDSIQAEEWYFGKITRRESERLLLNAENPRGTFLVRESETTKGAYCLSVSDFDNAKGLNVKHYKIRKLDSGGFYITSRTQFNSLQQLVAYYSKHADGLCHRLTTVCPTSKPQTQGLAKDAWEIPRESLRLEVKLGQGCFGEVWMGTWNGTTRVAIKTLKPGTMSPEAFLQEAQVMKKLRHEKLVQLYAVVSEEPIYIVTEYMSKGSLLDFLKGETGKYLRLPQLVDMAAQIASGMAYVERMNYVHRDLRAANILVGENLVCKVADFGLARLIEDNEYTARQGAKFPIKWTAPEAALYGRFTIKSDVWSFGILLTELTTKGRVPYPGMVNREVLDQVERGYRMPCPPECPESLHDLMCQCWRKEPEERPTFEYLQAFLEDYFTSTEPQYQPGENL

[19] = target: Calcium-dependent protein kinase 1 (Plasmodium falciparum) (UniProt P62344); conditions: Compound concentration 1000.0 nM
[20] = target: Mitogen-activated protein kinase kinase kinase 4 (Homo sapiens) (UniProt Q9Y6R4); conditions: Compound concentration 1000.0 nM
[21] = target: Atypical kinase COQ8A, mitochondrial (Homo sapiens) (UniProt Q8NI60); conditions: Compound concentration 1000.0 nM
[22] = target: Serine/threonine-protein kinase Nek5 (Homo sapiens) (UniProt Q6P3R8); conditions: Compound concentration 1000.0 nM
[23] = test system: Phosphatidylinositol 4,5-bisphosphate 3-kinase catalytic subunit alpha isoform (Homo sapiens), P42336 [C420R]; conditions: Compound concentration 1000.0 nM
[24] = target: Ribosomal protein S6 kinase alpha-2 (Homo sapiens) (UniProt Q15349); conditions: Compound concentration 1000.0 nM
[25] = target: Serine/threonine-protein kinase DCLK1 (Homo sapiens) (UniProt O15075); conditions: Compound concentration 1000.0 nM
[26] = target: Tyrosine-protein kinase HCK (Homo sapiens) (UniProt P08631); conditions: Compound concentration 1000.0 nM
[27] = target: Myosin-IIIb (Homo sapiens) (UniProt Q8WXR4); conditions: Compound concentration 1000.0 nM
[28] = target: Interleukin-1 receptor-associated kinase 1 (Homo sapiens) (UniProt P51617); conditions: Compound concentration 1000.0 nM
[29] = test system: Receptor-type tyrosine-protein kinase FLT3 (Homo sapiens), P36888 [UNDEFINED MUTATION]; conditions: Compound concentration 1000.0 nM
[30] = target: Mitogen-activated protein kinase 12 (Homo sapiens) (UniProt P53778); experiment: SAPK3 (h) Millipore kinase activity assay; conditions: Compound concentration 1.0 uM
[31] = target: Testis-specific serine/threonine-protein kinase 2 (Homo sapiens) (UniProt Q96PF2); experiment: TSSK2 (h) Millipore kinase activity assay; conditions: Compound concentration 1.0 uM
[32] = target: Sigma non-opioid intracellular receptor 1 (Homo sapiens) (UniProt Q99720); experiment: Inhibition of Sigma 1 at 10 µM in the Eurofins-Panlabs radioligand binding assay (Eurofins_assay_278110); design: ligand concentration 8 nM; conditions: Compound concentration 10.0 uM
[33] = target: Mu-type opioid receptor (Homo sapiens) (UniProt P35372); conditions: Compound concentration 10.0 uM
[34] = target: Insulin receptor (Homo sapiens) (UniProt P06213); experiment: IR (h) Millipore kinase activity assay; conditions: Compound concentration 1.0 uM
Insulin receptor (Homo sapiens), sequence (P06213 28-758 limits assumed): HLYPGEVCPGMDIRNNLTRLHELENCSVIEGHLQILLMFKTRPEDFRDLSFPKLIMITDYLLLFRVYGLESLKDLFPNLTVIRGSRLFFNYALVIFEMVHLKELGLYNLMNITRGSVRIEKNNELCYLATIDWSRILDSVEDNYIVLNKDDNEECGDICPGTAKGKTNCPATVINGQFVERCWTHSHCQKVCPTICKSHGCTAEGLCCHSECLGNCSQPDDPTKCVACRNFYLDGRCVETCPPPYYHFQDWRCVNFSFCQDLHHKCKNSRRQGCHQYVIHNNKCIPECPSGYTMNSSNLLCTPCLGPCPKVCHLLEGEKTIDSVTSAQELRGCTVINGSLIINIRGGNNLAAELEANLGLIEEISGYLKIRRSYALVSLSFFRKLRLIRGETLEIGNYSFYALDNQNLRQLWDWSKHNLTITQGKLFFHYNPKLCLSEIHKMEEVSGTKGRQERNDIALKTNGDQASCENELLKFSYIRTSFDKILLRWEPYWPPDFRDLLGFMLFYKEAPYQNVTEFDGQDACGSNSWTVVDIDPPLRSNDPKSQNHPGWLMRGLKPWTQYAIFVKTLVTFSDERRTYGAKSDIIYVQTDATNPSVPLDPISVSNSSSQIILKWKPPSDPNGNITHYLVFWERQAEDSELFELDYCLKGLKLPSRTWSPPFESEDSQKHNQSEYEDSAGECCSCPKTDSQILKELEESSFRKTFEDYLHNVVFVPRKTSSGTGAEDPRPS
Insulin receptor (Homo sapiens), sequence (P06213 763-1382 limits assumed): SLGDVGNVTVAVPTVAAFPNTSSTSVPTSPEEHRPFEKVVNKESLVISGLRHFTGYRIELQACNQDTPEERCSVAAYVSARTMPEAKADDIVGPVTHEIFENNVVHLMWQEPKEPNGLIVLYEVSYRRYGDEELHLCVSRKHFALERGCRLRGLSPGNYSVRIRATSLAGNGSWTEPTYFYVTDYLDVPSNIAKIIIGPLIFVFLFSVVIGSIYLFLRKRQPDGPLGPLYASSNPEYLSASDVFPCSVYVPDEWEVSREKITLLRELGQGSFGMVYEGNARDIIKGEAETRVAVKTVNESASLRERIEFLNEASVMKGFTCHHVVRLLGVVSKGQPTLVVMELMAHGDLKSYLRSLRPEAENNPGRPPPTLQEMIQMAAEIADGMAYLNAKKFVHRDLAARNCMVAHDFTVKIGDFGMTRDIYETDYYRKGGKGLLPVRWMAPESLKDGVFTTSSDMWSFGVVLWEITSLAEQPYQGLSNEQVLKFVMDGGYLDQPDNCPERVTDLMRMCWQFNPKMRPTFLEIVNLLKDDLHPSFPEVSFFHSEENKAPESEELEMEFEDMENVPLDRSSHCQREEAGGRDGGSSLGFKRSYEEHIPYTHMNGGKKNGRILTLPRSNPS

[35] = target: Dual specificity mitogen-activated protein kinase kinase 7 (Homo sapiens) (UniProt O14733); experiment: MKK7beta (h) Millipore kinase activity assay; conditions: Compound concentration 1.0 uM
[36] = target: Casein kinase I isoform gamma-1 (Homo sapiens) (UniProt Q9HCP0); experiment: CK1gamma1 (h) Millipore kinase activity assay; conditions: Compound concentration 1.0 uM
[37] = target: Serine/threonine-protein kinase ULK3 (Homo sapiens) (UniProt Q6PHR2); experiment: ULK3 (h) Millipore kinase activity assay; conditions: Compound concentration 1.0 uM
[38] = target: CDK7/Cyclin H/MNAT1 (Homo sapiens) (UniProt P51946+P50613+P51948); experiment: CDK7/cyclinH/MAT1 (h) Millipore kinase activity assay; type: protein-complex assay; conditions: Compound concentration 1.0 uM
[39] = target: Serine/threonine-protein kinase DCLK2 (Homo sapiens) (UniProt Q8N568); experiment: DCAMKL2 (h) Millipore kinase activity assay; conditions: Compound concentration 1.0 uM
[40] = target: Dual specificity protein kinase CLK3 (Homo sapiens) (UniProt P49761); experiment: CLK3 (h) Millipore kinase activity assay; conditions: Compound concentration 1.0 uM
[41] = target: Interleukin-1 receptor-associated kinase 4 (Homo sapiens) (UniProt Q9NWZ3); experiment: IRAK4 (h) Millipore kinase activity assay; conditions: Compound concentration 1.0 uM
Interleukin-1 receptor-associated kinase 4 (Homo sapiens), sequence (Q9NWZ3 whole entry): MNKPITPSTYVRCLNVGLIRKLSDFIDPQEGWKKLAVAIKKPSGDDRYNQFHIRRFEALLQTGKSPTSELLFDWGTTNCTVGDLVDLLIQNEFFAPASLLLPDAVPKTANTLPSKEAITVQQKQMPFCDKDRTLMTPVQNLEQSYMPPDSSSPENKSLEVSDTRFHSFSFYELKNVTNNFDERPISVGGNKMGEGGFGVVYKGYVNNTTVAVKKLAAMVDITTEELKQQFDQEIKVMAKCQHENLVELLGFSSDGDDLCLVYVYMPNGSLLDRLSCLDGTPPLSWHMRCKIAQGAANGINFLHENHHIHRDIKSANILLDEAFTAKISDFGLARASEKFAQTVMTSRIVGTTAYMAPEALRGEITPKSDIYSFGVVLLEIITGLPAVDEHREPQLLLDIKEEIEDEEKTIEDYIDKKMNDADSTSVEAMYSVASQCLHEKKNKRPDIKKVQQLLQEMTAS

[42] = target: Serine/threonine-protein kinase 33 (Homo sapiens) (UniProt Q9BYT3); experiment: STK33 (h) Millipore kinase activity assay; conditions: Compound concentration 1.0 uM
[43] = target: Platelet-activating factor receptor (Homo sapiens) (UniProt P25105); experiment: Inhibition of Platelet Activating Factor (PAF) at 10 µM in the Eurofins-Panlabs radioligand binding assay (Eurofins_assay_265010); conditions: Compound concentration 10.0 uM
[44] = target: Beta-1 adrenergic receptor (Homo sapiens) (UniProt P08588); conditions: Compound concentration 10.0 uM

Tyrosine-protein kinase ABL1 (Homo sapiens), P00519 [E255K], sequence (P00519 whole entry E255K): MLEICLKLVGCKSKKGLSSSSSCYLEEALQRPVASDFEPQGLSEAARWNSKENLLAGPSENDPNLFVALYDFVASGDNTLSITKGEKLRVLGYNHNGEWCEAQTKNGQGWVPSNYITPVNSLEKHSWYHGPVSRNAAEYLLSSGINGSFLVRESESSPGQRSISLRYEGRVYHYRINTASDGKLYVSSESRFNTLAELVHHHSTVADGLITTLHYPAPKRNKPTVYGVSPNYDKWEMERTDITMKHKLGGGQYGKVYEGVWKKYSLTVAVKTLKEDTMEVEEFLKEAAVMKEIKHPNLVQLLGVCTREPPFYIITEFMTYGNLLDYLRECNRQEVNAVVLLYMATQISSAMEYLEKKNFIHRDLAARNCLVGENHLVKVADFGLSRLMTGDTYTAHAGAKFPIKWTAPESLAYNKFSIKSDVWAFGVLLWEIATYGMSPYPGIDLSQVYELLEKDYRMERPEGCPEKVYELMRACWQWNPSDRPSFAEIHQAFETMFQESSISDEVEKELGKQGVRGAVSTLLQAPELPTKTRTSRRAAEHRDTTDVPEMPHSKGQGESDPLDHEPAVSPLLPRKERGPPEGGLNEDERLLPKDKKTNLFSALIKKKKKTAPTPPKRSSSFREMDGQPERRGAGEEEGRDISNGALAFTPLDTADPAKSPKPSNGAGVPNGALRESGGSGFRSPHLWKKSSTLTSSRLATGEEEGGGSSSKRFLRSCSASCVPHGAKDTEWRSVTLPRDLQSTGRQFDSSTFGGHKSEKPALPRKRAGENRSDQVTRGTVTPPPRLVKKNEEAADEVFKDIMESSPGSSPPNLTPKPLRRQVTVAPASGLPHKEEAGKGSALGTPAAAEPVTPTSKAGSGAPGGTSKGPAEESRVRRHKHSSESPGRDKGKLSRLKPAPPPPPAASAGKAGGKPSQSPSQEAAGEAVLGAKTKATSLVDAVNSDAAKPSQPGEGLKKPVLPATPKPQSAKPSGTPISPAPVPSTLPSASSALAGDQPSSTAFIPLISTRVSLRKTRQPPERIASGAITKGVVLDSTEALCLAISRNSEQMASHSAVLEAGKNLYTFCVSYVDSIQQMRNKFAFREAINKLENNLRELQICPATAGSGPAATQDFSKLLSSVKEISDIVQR

CC1=C(C#N)[C@@H](c2ccc3[nH]nc(C)c3c2)C(C#N)=C(c2ccc(Cl)cc2)N1 [BAY-827]
inactive: residual activity [1] 83.5% | residual activity [2] 65.2% | residual activity [3] 100% | residual activity [4] 100% | residual activity [5] 82.8% | residual activity [6] 100% | residual activity [7] 92.3% | residual activity [8] 100% | residual activity [9] 100% | residual activity [10] 100% | residual activity [11] 100% | residual activity [12] 100% | residual activity [13] 75.4% | residual activity [14] 74.4% | residual activity [15] 100% | residual activity [16] 100% | residual activity [17] 98.2% | residual activity [18] 100% | residual activity [19] 100% | residual activity [20] 67.9% | residual activity [21] 97.8% | residual activity [22] 80.3% | residual activity [23] 100% | residual activity [24] 100% | residual activity [25] 79.2% | residual activity [26] 100% | residual activity [27] 78% | residual activity [28] 100% | residual activity [29] 100%

CC1=C(C#N)C(c2ccc3[nH]nc(C)c3c2)C(C#N)=C(C)N1 [BAY-474]
inactive: inhibition [30] 8% | inhibition [31] -3% | inhibition [32] -7% | inhibition [33] -9% | inhibition [34] -9% | inhibition [35] 13% | inhibition [36] -9% | inhibition [37] -5% | inhibition [38] -1% | inhibition [39] -5% | inhibition [40] -1% | inhibition [41] 0% | inhibition [42] 2% | inhibition [43] 6% | inhibition [44] 0%
